Assay results: ChEMBL document CHEMBL4406827, “Novel 4-quinoline-thiosemicarbazone derivatives: Synthesis, antiproliferative activity, in vitro and in silico biomacromolecule interaction studies and topoisomerase inhibition” (Eur J Med Chem, 2019)
Active and inactive are the calls of the source. No cut-off for these calls is given here.

How the values were obtained:
Calf thymus DNA [1] = experiment: Binding affinity to calf thymus DNA assessed as hyperchromicity at 30 uM incubated for 10 mins by UV-Vis absorption spectroscopic method relative to control; assay type: nucleic-acid assay; conditions: Bos taurus
Calf thymus DNA [2] = experiment: Binding affinity to calf thymus DNA assessed as binding constant incubated for 10 mins by UV-Vis absorption spectroscopic method; assay type: nucleic-acid assay; conditions: Bos taurus
Calf thymus DNA [3] = experiment: Binding affinity to calf thymus DNA assessed as fold change in hypochromicity at 10 uM by fluorescence emission spectrum analysis relative to control; assay type: nucleic-acid assay; conditions: Bos taurus
Calf thymus DNA [4] = experiment: Binding affinity to calf thymus DNA assessed as DNA spectral changes at 30 uM incubated for 10 mins by circular dichroism method; assay type: nucleic-acid assay; conditions: Bos taurus
Salmon testes DNA = experiment: Binding affinity to salmon sperm […] DNA assessed as DNA intercalation by measuring increase in viscosity at 12 to 60 uM by viscometric method; assay type: nucleic-acid assay; conditions: Salmonidae
Albumin [5] = target: T1, Albumin (Bos taurus, UniProt P02769); experiment: Binding affinity to bovine serum albumin assessed as hyperchromicity at 5 to 40 uM incubated for 10 mins by UV-Vis absorption spectroscopic method relative to control; assay type: ADME; conditions: cattle, isolated protein
Albumin [6] = target: T1, Albumin; experiment: Binding affinity to bovine serum albumin assessed as binding constant incubated for 10 mins by UV-Vis absorption spectroscopic method; assay type: ADME; conditions: cattle, isolated protein
Albumin [7] = target: T1, Albumin; experiment: Binding affinity to bovine serum albumin assessed as hypochromicity at 5 to 40 uM by fluorescence emission spectrum analysis method relative to control; assay type: ADME; conditions: cattle, isolated protein
Albumin [8] = target: T1, Albumin; experiment: Binding affinity to bovine serum albumin assessed as Stem-Volmer quenching constant incubated for 10 mins by fluorescence emission spectrum analysis; assay type: ADME; conditions: cattle, isolated protein
[9] = Cytotoxicity against mouse RAW264.7 cells assessed as reduction in cell viability incubated for 48 hrs by MTT assay; assay type: cell-based
MCF7 = experiment: Cytotoxicity against human MCF7 cells assessed as reduction in cell viability incubated for 48 hrs by MTT assay; assay type: functional, cell-based; conditions: MCF7, 48 h
T47D = experiment: Cytotoxicity against human T47D cells assessed as reduction in cell viability incubated for 48 hrs by MTT assay; assay type: functional, cell-based
[10] = Selectivity index, ratio of CC50 for mouse RAW264.7 cells to ratio of IC50 for human MCF7 cells; assay type: toxicity; conditions: RAW264.7 cells and MCF7 cells, read-out: Ratio CC50/IC50
[11] = Selectivity index, ratio of CC50 for mouse RAW264.7 cells to ratio of IC50 for human T47D cells; assay type: toxicity; conditions: RAW264.7 cells and T47D cells, read-out: Ratio CC50/IC50
[12] = target: DNA topoisomerase 2-alpha (Homo sapiens) (UniProt P11388); experiment: Inhibition of recombinant human topoisomerase 2alpha using supercoiled pUC19 plasmid DNA as substrate at 10 uM incubated for 45 mins by ethidium bromide dye based agarose gel electrophoresis method
Calf thymus DNA [13] = experiment: Binding affinity to calf thymus DNA assessed as hypsochromic shift at 10 uM by fluorescence emission spectrum analysis; assay type: nucleic-acid assay; conditions: Bos taurus
Calf thymus DNA [14] = experiment: Binding affinity to calf thymus DNA assessed as hypsochromic shift at 30 uM incubated for 10 mins by UV-Vis absorption spectroscopic method; assay type: nucleic-acid assay; conditions: Bos taurus
Albumin [15] = target: T1, Albumin; experiment: Binding affinity to bovine serum albumin assessed as hypsochromic shift at 5 to 40 uM by fluorescence emission spectrum analysis method; assay type: ADME; conditions: cattle, isolated protein
Calf thymus DNA [16] = experiment: Binding affinity to calf thymus DNA assessed as hypochromicity at 30 uM incubated for 10 mins by UV-Vis absorption spectroscopic method relative to control; assay type: nucleic-acid assay; conditions: Bos taurus
Calf thymus DNA [17] = experiment: Binding affinity to calf thymus DNA assessed as bathochromic shift at 30 uM incubated for 10 mins by UV-Vis absorption spectroscopic method; assay type: nucleic-acid assay; conditions: Bos taurus
Calf thymus DNA [18] = experiment: Binding affinity to calf thymus DNA assessed as fold change in hyperchromicity at 10 uM by fluorescence emission spectrum analysis relative to control; assay type: nucleic-acid assay; conditions: Bos taurus
Calf thymus DNA [19] = experiment: Binding affinity to calf thymus DNA assessed as DNA spectral changes by measuring decrease in positive band at 274 nm at 30 uM incubated for 10 mins by circular dichroism method; assay type: nucleic-acid assay; conditions: Bos taurus
Calf thymus DNA [20] = experiment: Binding affinity to calf thymus DNA assessed as DNA spectral changes by measuring increase in negative band at 245 nm at 30 uM incubated for 10 mins by circular dichroism method; assay type: nucleic-acid assay; conditions: Bos taurus
Albumin [21] = target: T1, Albumin; experiment: Binding affinity to bovine serum albumin assessed as hypsochromic shift at 5 to 40 uM incubated for 10 mins by UV-Vis absorption spectroscopic method relative to control; assay type: ADME; conditions: cattle, isolated protein

T1 sequence (P02769 whole entry): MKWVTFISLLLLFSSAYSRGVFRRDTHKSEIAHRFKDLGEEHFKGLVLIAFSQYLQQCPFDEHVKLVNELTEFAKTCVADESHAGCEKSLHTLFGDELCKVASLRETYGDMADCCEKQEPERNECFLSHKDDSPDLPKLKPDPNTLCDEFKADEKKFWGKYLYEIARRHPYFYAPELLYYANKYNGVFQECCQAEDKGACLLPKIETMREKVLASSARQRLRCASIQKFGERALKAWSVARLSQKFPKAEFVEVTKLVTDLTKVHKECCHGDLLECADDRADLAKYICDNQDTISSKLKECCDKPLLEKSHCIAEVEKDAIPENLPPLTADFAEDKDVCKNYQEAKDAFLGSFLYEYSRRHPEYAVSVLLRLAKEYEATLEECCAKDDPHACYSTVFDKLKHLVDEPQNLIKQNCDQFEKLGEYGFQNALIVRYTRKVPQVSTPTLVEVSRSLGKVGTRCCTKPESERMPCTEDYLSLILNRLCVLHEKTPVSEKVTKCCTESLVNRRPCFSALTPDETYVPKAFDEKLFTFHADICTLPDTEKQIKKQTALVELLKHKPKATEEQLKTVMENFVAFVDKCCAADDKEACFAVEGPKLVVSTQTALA
DNA topoisomerase 2-alpha (Homo sapiens), sequence (P11388 whole entry): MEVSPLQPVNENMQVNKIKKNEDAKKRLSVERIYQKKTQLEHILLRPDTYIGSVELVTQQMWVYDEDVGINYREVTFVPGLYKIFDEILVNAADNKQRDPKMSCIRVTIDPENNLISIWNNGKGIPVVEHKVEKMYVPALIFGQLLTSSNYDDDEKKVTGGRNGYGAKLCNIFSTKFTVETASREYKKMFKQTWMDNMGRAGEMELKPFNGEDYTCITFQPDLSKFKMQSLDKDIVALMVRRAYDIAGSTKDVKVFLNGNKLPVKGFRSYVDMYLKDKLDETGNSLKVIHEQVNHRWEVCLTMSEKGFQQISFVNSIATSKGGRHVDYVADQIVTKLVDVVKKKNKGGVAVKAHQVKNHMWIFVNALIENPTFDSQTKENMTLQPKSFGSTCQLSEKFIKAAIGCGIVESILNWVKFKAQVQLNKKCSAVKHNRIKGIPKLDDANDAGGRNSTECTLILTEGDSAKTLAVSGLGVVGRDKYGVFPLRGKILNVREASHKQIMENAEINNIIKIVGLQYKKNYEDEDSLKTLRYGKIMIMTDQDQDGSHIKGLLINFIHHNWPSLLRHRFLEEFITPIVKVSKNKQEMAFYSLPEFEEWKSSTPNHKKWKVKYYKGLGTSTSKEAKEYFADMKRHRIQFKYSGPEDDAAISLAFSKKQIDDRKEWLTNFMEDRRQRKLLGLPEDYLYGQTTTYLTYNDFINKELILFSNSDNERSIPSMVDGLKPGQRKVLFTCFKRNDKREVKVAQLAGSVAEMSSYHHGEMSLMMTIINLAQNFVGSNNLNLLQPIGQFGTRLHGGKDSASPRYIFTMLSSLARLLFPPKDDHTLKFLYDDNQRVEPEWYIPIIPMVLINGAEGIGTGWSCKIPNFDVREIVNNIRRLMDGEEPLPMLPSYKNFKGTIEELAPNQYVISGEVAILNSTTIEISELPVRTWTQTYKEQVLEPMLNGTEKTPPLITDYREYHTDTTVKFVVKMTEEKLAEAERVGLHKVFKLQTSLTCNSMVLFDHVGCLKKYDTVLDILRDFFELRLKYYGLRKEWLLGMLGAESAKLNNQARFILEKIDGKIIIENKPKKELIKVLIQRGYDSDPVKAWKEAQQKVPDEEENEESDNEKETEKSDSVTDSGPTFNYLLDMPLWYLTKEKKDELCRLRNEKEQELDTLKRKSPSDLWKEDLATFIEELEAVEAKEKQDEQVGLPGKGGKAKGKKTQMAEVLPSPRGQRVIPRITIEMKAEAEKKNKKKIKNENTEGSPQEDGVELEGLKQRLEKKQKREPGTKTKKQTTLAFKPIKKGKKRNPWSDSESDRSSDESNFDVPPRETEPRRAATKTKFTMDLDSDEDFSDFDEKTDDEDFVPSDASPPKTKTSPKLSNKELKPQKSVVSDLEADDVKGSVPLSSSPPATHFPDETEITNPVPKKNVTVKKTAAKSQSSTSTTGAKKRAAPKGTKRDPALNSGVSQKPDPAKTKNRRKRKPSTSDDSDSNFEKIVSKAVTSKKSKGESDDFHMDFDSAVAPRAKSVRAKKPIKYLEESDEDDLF

Compound	Activity (Calf thymus DNA [1])	Kb (Calf thymus DNA [2])	fold change (FC) (Calf thymus DNA [3])	Activity (Calf thymus DNA [4])	Activity (Salmon testes DNA)	Activity (Albumin [5])	Kb (Albumin [6])	Activity (Albumin [7])	KSV (Albumin [8])	inhibition [12]	Activity (Calf thymus DNA [13])	Activity (Albumin [15])	Activity (Calf thymus DNA [16])	CC50 at 48 h [9]	IC50 (MCF7)	IC50 (T47D)	selectivity ratio [10]	selectivity ratio [11]	also measured
O=[N+]([O-])c1ccc(NC(=S)N/N=C\c2ccnc3ccccc23)cc1	–	2.51 ×10⁴ /M	7.69	Active	Active	43.48%	1.03 ×10⁵ /M	132.77%	3.82 ×10⁴ /M	inactive	–	Active	12.9%	82500 nM	810 nM	1330 nM	102	62	Activity (Calf thymus DNA [14]): Active
C=CCNC(=S)N/N=C\c1ccnc2ccccc12	2.88%	3.98 ×10⁴ /M	6.64	Active	Active	52.42%	1.44 ×10⁵ /M	371.21%	10.39 ×10⁴ /M	Active	–	Active	–	105000 nM	970 nM	1230 nM	108	85.5	Activity (Calf thymus DNA [17]): Active
S=C(N/N=C\c1ccnc2ccccc12)Nc1ccccc1	–	3.5 ×10⁴ /M	3.72	Active	Active	52.75%	7.29 ×10⁴ /M	33.65%	11.19 ×10⁴ /M	Active	Active	Active	52.3%	118000 nM	1070 nM	1380 nM	110	85.5	–
S=C(NCCc1ccccc1)N/N=C\c1ccnc2ccccc12	–	2.42 ×10⁴ /M	5.53	Active	Active	62.54%	1.08 ×10⁵ /M	157.14%	4.09 ×10⁴ /M	inactive	–	Active	27.4%	33000 nM	1090 nM	1120 nM	30.2	29.4	–
CNC(=O)c1cccc2c(Nc3ccc(NS(C)(=O)=O)cc3OC)c3cccc(C)c3nc12 [ASULACRINE]	–	–	–	–	–	–	–	–	–	–	–	–	–	31200 nM	–	–	–	–	–
S=C(N/N=C\c1ccnc2ccccc12)Nc1cccc2ccccc12	13.9%	2.54 ×10⁵ /M	1.67	Active	Active	53.34%	1.13 ×10⁵ /M	226.14%	6.36 ×10⁴ /M	Active	–	Active	–	22600 nM	880 nM	1210 nM	25.6	18.6	–
S=C(N/N=C\c1ccnc2ccccc12)Nc1cccnc1	–	1.96 ×10⁵ /M	–	Active	Active	52.95%	8.03 ×10⁴ /M	493.41%	3.99 ×10⁴ /M	inactive	–	Active	20.3%	91600 nM	970 nM	1100 nM	94.4	83.3	fold change (FC) (Calf thymus DNA [18]): 0.89
COc1cc(NS(C)(=O)=O)ccc1Nc1c2ccccc2nc2ccccc12 [AMSACRINE]	–	–	–	–	Active	–	–	–	–	Active	–	–	–	95500 nM	910 nM	940 nM	105	102	–

Further lines, with some results ahead:

Activity (Calf thymus DNA [1])	Kb (Calf thymus DNA [2])	fold change (FC) (Calf thymus DNA [3])	Activity (Calf thymus DNA [4])	Activity (Salmon testes DNA)	Activity (Albumin [5])	Kb (Albumin [6])	Activity (Albumin [7])	KSV (Albumin [8])	inhibition [12]	Activity (Calf thymus DNA [13])	Activity (Albumin [15])	Activity (Calf thymus DNA [16])	Compound	CC50 at 48 h [9]	IC50 (MCF7)	IC50 (T47D)	selectivity ratio [10]	selectivity ratio [11]	also measured
59.6%	1.33 ×10⁵ /M	11.6	Active	Active	42.61%	5.44 ×10⁴ /M	320.04%	9.24 ×10⁴ /M	Active	Active	Active	–	COc1ccc(NC(=S)N/N=C\c2ccnc3ccccc23)cc1	101000 nM	990 nM	1360 nM	102	74.6	Activity (Calf thymus DNA [14]): Active
–	6.29 ×10⁴ /M	1.88	Active	Active	53.34%	1.13 ×10⁵ /M	68.97%	6.07 ×10⁴ /M	Active	Active	Active	8.51%	S=C(N/N=C\c1ccnc2ccccc12)Nc1ccc(Cl)cc1	63500 nM	1070 nM	1270 nM	59.3	50	Activity (Calf thymus DNA [14]): Active
11.8%	3.56 ×10⁵ /M	2.77	Active	Active	58.04%	1.39 ×10⁵ /M	287.44%	8.85 ×10⁴ /M	inactive	Active	Active	–	Cc1ccc(NC(=S)N/N=C\c2ccnc3ccccc23)cc1	50500 nM	980 nM	1320 nM	51.5	38.3	Activity (Calf thymus DNA [17]): Active
51.4%	1.62 ×10⁶ /M	4.65	–	Active	69.01%	1.43 ×10⁵ /M	601.57%	16.05 ×10⁴ /M	inactive	Active	Active	–	CCc1ccc(NC(=S)N/N=C\c2ccnc3ccccc23)cc1	35700 nM	820 nM	1280 nM	43.6	27.9	Activity (Calf thymus DNA [19]): Active; Activity (Calf thymus DNA [20]): Active; Activity (Calf thymus DNA [17]): Active; Activity (Albumin [21]): Active
–	7.44 ×10⁴ /M	6.06	Active	Active	56.43%	1.17 ×10⁵ /M	508.17%	11.2 ×10⁴ /M	Active	–	Active	10.8%	S=C(N/N=C\c1ccnc2ccccc12)Nc1ccc(Br)cc1	53500 nM	990 nM	1480 nM	54.1	36.2	Activity (Calf thymus DNA [14]): Active
15.9%	2.37 ×10⁵ /M	3.44	Active	Active	38.74%	8.4 ×10⁴ /M	237.42%	5.9 ×10⁴ /M	Active	–	Active	–	Fc1ccc(NC(=S)N/N=C\c2ccnc3ccccc23)cc1	45900 nM	1100 nM	1070 nM	41.7	42.9	–
